Earlier results on two compounds are cited in patent publication US10166183B2, “Pharmaceutical formulations” (AUSPEX PHARMACEUTICALS, INC., priority 2014, dated 2019).

The conditions of this series: in human plasma; metabolites of orally administered tetrabenazine.

On to alpha-dihydrotetrabenazine [α-HTBZ], for which the half-lives is 7 h.

For `COc1cc2c(cc1OC)[C@H]1C[C@H](O)[C@H](CC(C)C)CN1CC2` [β-HTBZ, beta-dihydrotetrabenazine], the half-lives is 5 h.
